Results reported in patent US20260335323A1, “CHIMERIC MOLECULE” (UCL Business Ltd, priority 2023, published 2026).

Test system: SH-SY5Y cells
Test: mito-mKeima mitophagy assay (mitophagy index)
Format: cell-based, human
Conditions: for enhancement of mitophagy: co-treating with excess TSPO ligand
Method: FIG. 1. The structure of AUTAC-4 is shown in (A). (B) Representative images of SH-SY5Y cells stably expressing the mito-mKeima reporter treated with AUTAC4 for 18 h. Nuclei were stained with Hoechst 33342, healthy mitochondria are shown in green and mitochondria in lysosomes are shown in red. (C-E) Fold change in mitophagy index over time after treatment with increasing concentrations of AUTAC4 under treatment with DMSO (C), 3 mM CCCP (D) or 0.1/0.1 mM antimycin/oligomycin (E), also for 18 h. (F) Quantification of changes in mitochondrial membrane potential over time (DYm) by measuring the TMRM relative fluorescence intensity (RFI) treated with DMSO, 10 mM CCCP, 10 mM and 20 mM AUTAC4. Normalised to number of nuclei. (G) Representative western blot of SH-SY5Y cells treated with DMSO, 10 mM AUTAC4 or 10 mM AUTAC4+0.1/0.1 mM antimycin/oligomycin for 18 h and, probed for p62, b-actin and Tom20. Quantifications of western blot for changes in Tom20 and p62 levels shown in (H) and (I), respectively. (J) Representative images of PANC-1 cells stably expressing the mCherry-EGFP-LC3 tandem reporter. Nuclei stained with Hoechst 33342, autophagosomes are shown in the EGFP channel and autolysosomes in the mCherry channel. Fold change in the number of autophagosome (K) and autolysosome (L) puncta in AUTAC4 treated cells. All data shown are mean±SEM, n=3, *p<0.05, *** p<0.001. For mito-mKeima experiments, statistics were calculated by Two-way ANOVA with Tukey's multiple comparisons test. For western blots, TMRM and LC3 tandem reporter assay, statistics were calculated with one-way ANOVA with Tukey's multiple comparisons test.
FIG. 5. ULKTACs induce potent mitophagy after colocalisation and local activation of ULK1 at mitochondria (A) Representative immunofluorescence of PANC-1 cells treated with CCCP, ULKTACs or both and immunostained for TOM20 and ULK1 and counterstained with Alexa 488 and 568, respectively. Nuclei stained with Hoechst 33342. (B) Quantification of the colocalised ULK1 to TOM20 spot area of PANC-1 cells treated with DMSO, 5 mM CCCP, 10 mM BL-918, 10 mM BL-918+5 mM CCCP, […] NZ-65, […] NZ-65+5 mM CCCP, […] NZ-66, […] NZ-66+5 mM CCCP, 50 mM TSPO ligand, […] NZ-65+50 mM TSPO ligand, […] NZ-66+50 mM TSPO ligand. (C) Western blot of SH-SY5Y cells treated with 1 mM ULKTACs, 5 mM CCCP or both, probed for Mfn2, b-Actin and Tom20—quantifications are shown in (D) for Mfn2, normalised to Actin. (E) Representative images of SH-SY5Y cells stably expressing the mito-mKeima reporter treated with 3 mM CCCP, NZ-65 or both. Nuclei were stained with Hoechst 33342, healthy mitochondria are shown in green and mitochondria in lysosomes are shown in red. Fold change in mitophagy index over time after treatment for the indicated timepoints with title treatments alone or co-treated with 1.25 mM ULKTAC or 10 mM ULKTAC NZ-65 (F) or NZ-66 (G). Fold change in mitophagy index over time after treatment for the indicated timepoints with DMSO, 1.25 µM NZ-65 or NZ-66±50 µM TSPO ligand under co-treatment with DMSO (H) or 3 μM CCCP (I). […] Normalised to number of nuclei. All data shown are mean±SEM, n=3, *p<0.05, ** p<0.01, *** p<0.001. For colocalisation and TMRM experiments, one-way ANOVA with Dunnett's multiple comparisons test. For western blots, one-way ANOVA with Tukey's multiple comparisons test and unpaired t-test. For mito-mKeima experiment, two-way ANOVA with Tukey's multiple comparisons test.
SH-SY5Y stably expressing mito-mKeima were produced as previously described28,29. Cells were seeded in 384 well CellCarrier Ultra plates (PerkinElmer) 24 hours before treatment in complete media without phenol red. Cells were treated with increasing concentrations of BL-918, AUTAC4, NZ-65 or NZ-66, 24 hours prior to treatment with increasing concentrations of mitochondrial uncouplers to cause mitochondrial insult. SH-SY5Y mitochondria were treated with DMSO, 3 μM CCCP, 10 μM CCCP, 0.1/0.1 μM antimycin/oligomycin (AO), 0.5/0.5 µM AO or 1/1 μM AO. […]

[1] = co-treatment with antimycin/oligomycin

SMILES	enhancement of mitophagy	enhancement of induced mitophagy (co-treatment with CCCP)	enhancement of induced mitophagy [1]	induction of mitophagy (compound alone, higher concentrations)
O=C(Nc1cc(C(F)(F)F)cc(C(F)(F)F)c1)N[C@@H](C(=O)Nc1ccc(F)cc1F)c1ccc(OCc2cn(CCOCCOCCNC(=O)C(=O)c3c(-c4ccccc4)[nH]c4ccccc34)nn2)cc1 [NZ-65, (R)-2-(3-(3,5-bis(trifluoromethyl)phenyl)ureido)-N-(2,4-difluorophenyl)-2-(4-((1-(2-(2-(2-(2-oxo-2-(2-phenyl-1H-indol-3-yl)acetamido)ethoxy)ethoxy)ethyl)-1H-1,2,3-triazol-4-yl)methoxy)phenyl) acetamide]	restricts enhancement of mitophagy	remarkably strong increases in mitophagy	remarkably strong increases in mitophagy	
O=C(Nc1ccc(F)cc1F)[C@H](NC(=S)Nc1cc(C(F)(F)F)cc(C(F)(F)F)c1)c1ccccc1 [BL-918, reference compound]				induction of mitophagy only at higher concentrations
O=C(Nc1cc(C(F)(F)F)cc(C(F)(F)F)c1)N[C@@H](C(=O)Nc1ccc(F)cc1F)c1ccc(OCc2cn(CCCCCCNC(=O)C(=O)c3c(-c4ccccc4)[nH]c4ccccc34)nn2)cc1 [NZ-66, (R)-2-(3-(3,5-bis(trifluoromethyl)phenyl)ureido)-N-(2,4-difluorophenyl)-2-(4-((1-(6-(2-oxo-2-(2-phenyl-1H-indol-3-yl)acetamido)hexyl)-1H-1,2,3-triazol-4-yl)methoxy)phenyl) acetamide]	restricts enhancement of mitophagy	remarkably strong increases in mitophagy	remarkably strong increases in mitophagy	
